Experimental data taken from patent publication US11925629B2, “Heterocyclic inhibitors of ERK1 and ERK2 and their use in the treatment of cancer” (Asana Biosciences, LLC, priority 2015, dated 2024).
Like-named read-outs stand apart in the source and are kept apart here.

Key:
Type in all cases: cell-based, human
[1] = test system: phosphorylation of RSK1(S380) (the downstream target of ERK1/2); assay: Phospho-RSK1(S380) ELISA assay in HT-29 cells; settings: Homo sapiens, HT-29, HT29 cells, read-out: Mechanistic Cell Assay RSK1 Phos HT29 IC50
Method in brief: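 HT-29 colorectal carcinoma cells (B-RafV600E), plated overnight at 37° C./5% CO2, were treated with compound dilutions for 2 h. Lysates were analysed by phospho-RSK1(Ser380) sandwich ELISA with absorbance at 450 nm. IC50 came from a sigmoidal variable-slope dose-response fit.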

[2] = test system: HCT116 (colorectal carcinoma, K Ras G13D) cells; assay: Cell proliferation (Alamar Blue) assay, HCT116; settings: Homo sapiens, HCT-116, HCT116 cells
Method in brief: (§1)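 Cells seeded at 5000/well and allowed 16-24 h at 37° C./5% CO2, then exposed to 3-fold serial dilutions (typically 0.0005 to 10 uM) for 72 h. Viability read by Alamar Blue (1×, 1-3 h) fluorescence at 540/590 nm; IC50 from variable-slope sigmoidal fit.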

[3] = test system: HT-29 (colorectal carcinoma, B-RafV600E) cells; assay: Cell proliferation (Alamar Blue) assay, HT-29; settings: Homo sapiens, HT-29, HT29 cells
Method in brief: as §1

IC50 ([1]; phospho-RSK1(S380)) | IC50 [2] | IC50 [3] | IC50 [1] | SMILES
250 to 500 nM | 250 to 500 nM | 250 to 500 nM | – | Cc1cnc(Nc2ccc3c(c2)OCC3)nc1-n1ccc(C(=O)NC(CO)c2ccccc2)c1 (stereo not drawn) [Example 185, 1-(2-((2,3-dihydrobenzofuran-6-yl)amino)-5-methylpyrimidin-4-yl)-N-(2-hydroxy-1-phenylethyl)-1H-pyrrole-3-carboxamide]
500 to 2500 nM | > 2500 nM | 500 to 2500 nM | – | NCC(NC(=O)c1ccn(-c2ccnc(Nc3ccc(F)cc3)c2)c1)c1ccccc1 (stereo not drawn) [Example 206, N-(2-amino-1-phenylethyl)-1-(2-((4-fluorophenyl)amino)pyridin-4-yl)-1H-pyrrole-3-carboxamide]
> 2500 nM | > 2500 nM | 500 to 2500 nM | – | O=C(N[C@H](CO)c1cccc(Cl)c1)c1cn(-c2ccnc(NC3CCOC3)c2)cn1 (stereo partly drawn) [Example 170, N-((S)-1-(3-chlorophenyl)-2-hydroxyethyl)-1-(2-((tetrahydrofuran-3-yl)amino)pyridin-4-yl)-1H-imidazole-4-carboxamide]
500 to 2500 nM | 500 to 2500 nM | 250 to 500 nM | – | Cc1cnc(Nc2ccc(F)cc2Cl)nc1-n1ccc(C(=O)NC(CO)c2cccc(Cl)c2)c1 (stereo not drawn) [Example 31, 1-(2-((2-chloro-4-fluorophenyl)amino)-5-methyl-pyrimidin-4-yl)-N-(1-(3-chlorophenyl)-2-hydroxy-ethyl)-1H-pyrrole-3-carboxamide]
500 to 2500 nM | > 2500 nM | > 2500 nM | – | Cc1cn(-c2ccnc(Nc3ccccc3)c2)cc1C(=O)N[C@H](CO)c1cccc(Cl)c1 [Example 183, (S)-N-(1-(3-chlorophenyl)-2-hydroxyethyl)-4-methyl-1-(2-(phenylamino)pyridin-4-yl)-1H-pyrrole-3-carboxamide]
100 to 250 nM | 100 to 250 nM | 250 to 500 nM | – | Cc1cnc(Nc2ccc3c(c2)CCO3)nc1-n1ccc(C(=O)NC(CO)c2cccc(Cl)c2)c1 (stereo not drawn) [Example 137, N-(1-(3-chloro-phenyl)-2-hydroxy-ethyl)-1-(2-((2,3-dihydro-benzofuran-5-yl)-mino)-5-methyl-pyrimidin-4-yl)-1H-pyrrole-3-carboxamide]
> 2500 nM | 500 to 2500 nM | 500 to 2500 nM | – | CC(=O)NCC(NC(=O)c1ccn(-c2nc(Nc3ccc4c(c3)OC(F)(F)O4)ncc2C)c1)c1cccc(Cl)c1 (stereo not drawn) [Example 158, N-(2-acetamido-1-(3-chloro-phenyl)-ethyl)-1-(2-((2,2-difluoro-benzo[d][1,3]dioxol-5-yl)-amino)-5-methyl-pyrimidin-4-yl)-1H-pyrrole-3-carboxamide]
≤ 100 nM | ≤ 100 nM | ≤ 100 nM | – | Cc1cnc(NC2CCOCC2)nc1-n1cnc(C(=O)NC(CN)c2cccc(Cl)c2)c1 (racemic) [Compound 225, N-(2-Amino-1-(3-chlorophenyl)ethyl)-1-(5-methyl-2-((tetrahydro-2H-pyran-4-yl)amino)pyrimidin-4-yl)-1H-imidazole-4-carboxamide]
≤ 100 nM | 100 to 250 nM | ≤ 100 nM | – | Cc1cnc(NC2CCOCC2)nc1-n1cnc(C(=O)N[C@H](CO)c2cccc(Cl)c2)c1 [Compound 211, (S)—N-(1-(3-chlorophenyl)-2-hydroxyethyl)-1-(5-methyl-2-((tetrahydro-2H-pyran-4-yl)amino)pyrimidin-4-yl)-1H-imidazole-4-carboxamide]
100 to 250 nM | 100 to 250 nM | 100 to 250 nM | – | Cc1cnc(Nc2ccc3c(c2)CCCO3)nc1-n1ccc(C(=O)NC(CO)c2ccccc2)c1 (stereo not drawn) [Example 173, 1-(2-(chroman-6-ylamino)-5-methylpyrimidin-4-yl)-N-(2-hydroxy-1-phenylethyl)-1H-pyrrole-3-carboxamide]
250 to 500 nM | 250 to 500 nM | 250 to 500 nM | – | Cc1cnc(Nc2ccc3c(c2)OCO3)nc1-n1ccc(C(=O)N[C@H](CO)Cc2ccccc2)c1 [Example 59, (S)-1-(2-(benzo[d][1,3]dioxol-5-ylamino)-5-methyl-pyrimidin-4-yl)-N-(1-hydroxy-3-phenyl-propan-2-yl)-1H-pyrrole-3-carboxamide]
500 to 2500 nM | > 2500 nM | > 2500 nM | – | CC[C@H](CO)Nc1cc(-n2cnc(C(=O)NC(CO)c3cccc(Cl)c3)c2)c(Cl)cn1 (stereo partly drawn) [Example 168, 1-(5-chloro-2-(((R)-1-hydroxybutan-2-yl)amino)pyridin-4-yl)-N-(1-(3-chlorophenyl)-2-hydroxyethyl)-1H-imidazole-4-carboxamide]
100 to 250 nM | ≤ 100 nM | ≤ 100 nM | – | Cc1cnc(NC2CC(F)(F)C2)nc1-n1cnc(C(=O)N[C@H](CN)c2cc(F)cc(Cl)c2)c1 [Example 288, (S)-N-(2-amino-1-(3-chloro-5-fluorophenyl)ethyl)-1-(2-((3,3-difluorocyclobutyl)amino)-5-methylpyrimidin-4-yl)-1H-imidazole-4-carboxamide]
500 to 2500 nM | > 2500 nM | 500 to 2500 nM | – | Cc1cnc(NC2CCOC2)nc1-n1ccc(C(=O)NC(CO)c2ccccc2)c1 (stereo not drawn) [Example 128, N-(2-hydroxy-1-phenylethyl)-1-(5-methyl-2-((tetrahydro-furan-3-yl)amino)pyrimidin-4-yl)-1H-pyrrole-3-carboxamide]
– | 250 to 500 nM | ≤ 100 nM | ≤ 100 nM | Cc1cnc(Nc2ccc(F)cc2Cl)nc1-n1cnc(C(=O)NCc2cccc(Cl)c2CO)c1 [Example 329, N-(3-chloro-2-(hydroxymethyl)benzyl)-1-(2-((2-chloro-4-fluorophenyl)amino)-5-methylpyrimidin-4-yl)-1H-imidazole-4-carboxamide]
> 2500 nM | > 2500 nM | > 2500 nM | – | O=C(Nc1cnn(-c2ccnc(Nc3ccccc3)n2)c1)N[C@H](CO)c1cccc(Cl)c1 [Example 12, (S)-1-(1-(3-chlorophenyl)-2-hydroxy-ethyl)-3-(1-(2-(phenyl-amino)pyrimidin-4-yl)-1H-pyrazol-4-yl) urea]
100 to 250 nM | 250 to 500 nM | 500 to 2500 nM | – | Cc1cnc(Nc2ccc(F)cc2)nc1-n1ccc(C(=O)NC(CO)c2ccccc2)c1 (stereo not drawn) [Example 114, 1-(2-((4-fluoro-phenyl)amino)-5-methyl-pyrimidin-4-yl)-N-(2-hydroxy-1-phenylethyl)-1H-pyrrole-3-carboxamide]
≤ 100 nM | 100 to 250 nM | 100 to 250 nM | – | Cc1cnc(Nc2ccc3occc3c2)nc1-n1ccc(C(=O)NC(CO)c2ccccc2)c1 (stereo not drawn) [Example 65, 1-(2-(benzo-furan-5-ylamino)-5-methyl-pyrimidin-4-yl)-N-(2-hydroxy-1-phenylethyl)-1H-pyrrole-3-carboxamide]
250 to 500 nM | > 2500 nM | 500 to 2500 nM | – | O=C(NC(CO)c1ccccc1)c1ccn(-c2ccnc(Nc3ccccc3)c2)c1 (stereo not drawn) [Example 71, N-(2-hydroxy-1-phenylethyl)-1-(2-(phenylamino)pyridin-4-yl)-1H-pyrrole-3-carboxamide]
100 to 250 nM | 250 to 500 nM | 100 to 250 nM | – | Cc1cnc(Nc2ccc(N3CCOCC3)cc2)nc1-n1ccc(C(=O)NC(CO)c2cccc(Cl)c2)c1 (stereo not drawn) [Example 205, N-(1-(3-chlorophenyl)-2-hydroxyethyl)-1-(5-methyl-2-((4-morpholinophenyl)amino)pyrimidin-4-yl)-1H-pyrrole-3-carboxamide]
> 2500 nM | 500 to 2500 nM | 500 to 2500 nM | – | Cc1cnc(Nc2ccc3[nH]ncc3c2)nc1-n1ccc(C(=O)NC(CO)c2ccccc2)c1 (stereo not drawn) [Example 140, 1-(2-((1H-indazol-5-yl)amino)-5-methyl-pyrimidin-4-yl)-N-(2-hydroxy-1-phenylethyl)-1H-pyrrole-3-carboxamide]
– | 100 to 250 nM | ≤ 100 nM | ≤ 100 nM | CC[C@H](CO)Nc1ncc(C)c(-n2cnc(C(=O)NCc3cccc(Cl)c3CO)c2)n1 [Example 336, (R)-N-(3-chloro-2-(hydroxymethyl)benzyl)-1-(2-((1-hydroxybutan-2-yl)amino)-5-methylpyrimidin-4-yl)-1H-imidazole-4-carboxamide]
100 to 250 nM | 500 to 2500 nM | ≤ 100 nM | – | Cc1cnc(NC2CCOCC2)nc1-n1cnc(C(=O)N[C@@H](CN)c2cccc(Cl)c2)c1 (single isomer, unassigned) [Compound 225b]
250 to 500 nM | 250 to 500 nM | 100 to 250 nM | – | Cc1cnc(Nc2ccc3c(c2)OCO3)nc1-n1ccc(C(=O)NC(CO)c2ccccc2)c1 (stereo not drawn) [Example 47, 1-(2-(benzo[d][1,3]dioxol-5-ylamino)-5-methyl-pyrimidin-4-yl)-N-(2-hydroxy-1-phenylethyl)-1H-pyrrole-3-carboxamide]
250 to 500 nM | 500 to 2500 nM | 100 to 250 nM | – | CC[C@@H](CO)Nc1ncc(C)c(-n2cnc(C(=O)N[C@H](CO)c3cccc(Cl)c3)c2)n1 [Example 220, N-((S)-1-(3-chlorophenyl)-2-hydroxyethyl)-1-(2-(((S)-1-hydroxybutan-2-yl)amino)-5-methylpyrimidin-4-yl)-1H-imidazole-4-carboxamide]
250 to 500 nM | > 2500 nM | 500 to 2500 nM | – | CCC(C)Nc1ncc(C)c(-n2ccc(C(=O)N[C@H](CO)c3ccc(F)c(Cl)c3)c2)n1 (stereo partly drawn) [Example 197, 1-(2-(sec-butylamino)-5-methylpyrimidin-4-yl)-N-((S)-1-(3-chloro-4-fluorophenyl)-2-hydroxyethyl)-1H-pyrrole-3-carboxamide]

SMILES | IC50 ([1]; phospho-RSK1(S380)) | IC50 [2] | IC50 [3] | IC50 [1]
Cc1cnc(NC2CCOCC2)nc1-n1cnc(C(=O)N[C@H](CN)c2cccc(Cl)c2)c1 [Cmpd 225a] | ≤ 100 nM | ≤ 100 nM | ≤ 100 nM | –
